The supplement of paper PMC10883282

Legend:
Assay in all cases: relative viability vs DMSO control (72 h) (fraction); higher = more viable cells
MES-SA = test system: MES-SA
In short: (§1)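 Sarcoma cell lines went into 384-well plates at densities chosen to reach 80–90% confluence. After 24 h, each well received 2.5 µl of serially diluted compound, with source plates running from 10 mM to 0.0002 mM, and the plates were kept 72 h at 37 °C, 5% CO2, alongside 0.1% DMSO vehicle and a 5 µM positive control. Relative viability was derived from ATPLite readings as percent growth and averaged over up to triplicate wells. The data were then rescaled so that 1 stands for full and 0 for none.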

SK-LMS-1 = test system: SK-LMS-1
In short: as §1

SK-ES-1 = test system: SK-ES-1
In short: as §1

SYO-1 = test system: SYO-1
In short: as §1

SW1353 = test system: SW1353
In short: as §1

RD-ES = test system: RD-ES
In short: as §1

VA-ES-BJ = test system: VA-ES-BJ
In short: as §1

HT1080 = test system: HT1080
In short: as §1

RD = test system: RD
In short: as §1

KHOS-240S = test system: KHOS-240S
In short: as §1

SW982 = test system: SW982
In short: as §1

G401 = test system: G401
In short: as §1

COC(=O)N[C@@H](C)CNc1nccc(-c2cn(C(C)C)nc2-c2cc(Cl)cc(NS(C)(=O)=O)c2F)n1 [Encorafenib]
Settings	relative viability
G401, 0.00017 µM	0.975
G401, 0.00051 µM	1.01
G401, 0.00152 µM	0.9948
G401, 0.00457 µM	1.01
G401, 0.01372 µM	1.02
G401, 0.04115 µM	1.06
G401, 0.1235 µM	1.04
G401, 0.3704 µM	1.01
G401, 1.111 µM	0.841
G401, 3.333 µM	0.653
G401, 10 µM	0.5834
HT1080, 0.00017 µM	1.06
HT1080, 0.00051 µM	1.09
HT1080, 0.00152 µM	1.07
HT1080, 0.00457 µM	1.08
HT1080, 0.01372 µM	1.09
HT1080, 0.04115 µM	1.08
HT1080, 0.1235 µM	1.06
HT1080, 0.3704 µM	1.08
HT1080, 1.111 µM	0.885
HT1080, 3.333 µM	0.715
HT1080, 10 µM	0.765
KHOS-240S, 0.00017 µM	0.998
KHOS-240S, 0.00051 µM	0.986
KHOS-240S, 0.00152 µM	1.01
KHOS-240S, 0.00457 µM	0.993
KHOS-240S, 0.01372 µM	0.964
KHOS-240S, 0.04115 µM	0.981
KHOS-240S, 0.1235 µM	0.991
KHOS-240S, 0.3704 µM	0.97
KHOS-240S, 1.111 µM	0.904
KHOS-240S, 3.333 µM	0.788
KHOS-240S, 10 µM	0.732
MES-SA, 0.00017 µM	0.98
MES-SA, 0.00051 µM	0.944
MES-SA, 0.00152 µM	1
MES-SA, 0.00457 µM	0.985
MES-SA, 0.01372 µM	0.958
MES-SA, 0.04115 µM	1.01
MES-SA, 0.1235 µM	0.998
MES-SA, 0.3704 µM	0.972
MES-SA, 1.111 µM	0.714
MES-SA, 3.333 µM	0.461
MES-SA, 10 µM	0.547
RD, 0.00017 µM	0.963
RD, 0.00051 µM	1.01
RD, 0.00152 µM	1.015
RD, 0.00457 µM	1
RD, 0.01372 µM	1.01
RD, 0.04115 µM	1.01
RD, 0.1235 µM	1.01
RD, 0.3704 µM	0.978
RD, 1.111 µM	0.807
RD, 3.333 µM	0.447
RD, 10 µM	0.45
RD-ES, 0.00017 µM	0.93
RD-ES, 0.00051 µM	0.95
RD-ES, 0.00152 µM	0.973
RD-ES, 0.00457 µM	0.956
RD-ES, 0.01372 µM	0.935
RD-ES, 0.04115 µM	0.94
RD-ES, 0.1235 µM	0.905
RD-ES, 0.3704 µM	0.91
RD-ES, 1.111 µM	0.707
RD-ES, 3.333 µM	0.462
RD-ES, 10 µM	0.565
SK-ES-1, 0.00017 µM	0.928
SK-ES-1, 0.00051 µM	0.948
SK-ES-1, 0.00152 µM	0.972
SK-ES-1, 0.00457 µM	0.979
SK-ES-1, 0.01372 µM	0.956
SK-ES-1, 0.04115 µM	1.02
SK-ES-1, 0.1235 µM	0.982
SK-ES-1, 0.3704 µM	0.813
SK-ES-1, 1.111 µM	0.5375
SK-ES-1, 3.333 µM	0.308
SK-ES-1, 10 µM	0.394
SK-LMS-1, 0.00017 µM	1.01
SK-LMS-1, 0.00051 µM	1.02
SK-LMS-1, 0.00152 µM	0.9804
SK-LMS-1, 0.00457 µM	1.017
SK-LMS-1, 0.01372 µM	0.953
SK-LMS-1, 0.04115 µM	0.933
SK-LMS-1, 0.1235 µM	0.9782
SK-LMS-1, 0.3704 µM	0.894
SK-LMS-1, 1.111 µM	0.7389
SK-LMS-1, 3.333 µM	0.49
SK-LMS-1, 10 µM	0.441
SW982, 0.00017 µM	0.94
SW982, 0.00051 µM	0.946
SW982, 0.00152 µM	0.887
SW982, 0.00457 µM	0.877
SW982, 0.01372 µM	0.853
SW982, 0.04115 µM	0.828
SW982, 0.1235 µM	0.798
SW982, 0.3704 µM	0.704
SW982, 1.111 µM	0.489
SW982, 3.333 µM	0.327
SW982, 10 µM	0.308
SW1353, 0.00017 µM	1.06
SW1353, 0.00051 µM	1.09
SW1353, 0.00152 µM	1.1
SW1353, 0.00457 µM	1.08
SW1353, 0.01372 µM	1.086
SW1353, 0.04115 µM	1.08
SW1353, 0.1235 µM	1.07
SW1353, 0.3704 µM	1.1
SW1353, 1.111 µM	0.966
SW1353, 3.333 µM	0.767
SW1353, 10 µM	0.739
SYO-1, 0.00017 µM	0.988
SYO-1, 0.00051 µM	0.992
SYO-1, 0.00152 µM	0.972
SYO-1, 0.00457 µM	0.985
SYO-1, 0.01372 µM	1.003
SYO-1, 0.04115 µM	0.997
SYO-1, 0.1235 µM	1.018
SYO-1, 0.3704 µM	1.02
SYO-1, 1.111 µM	0.988
SYO-1, 3.333 µM	0.877
SYO-1, 10 µM	0.818
VA-ES-BJ, 0.00017 µM	1.02
VA-ES-BJ, 0.00051 µM	1.04
VA-ES-BJ, 0.00152 µM	1.04
VA-ES-BJ, 0.00457 µM	1.03
VA-ES-BJ, 0.01372 µM	1.03
VA-ES-BJ, 0.04115 µM	1.03
VA-ES-BJ, 0.1235 µM	1
VA-ES-BJ, 0.3704 µM	0.989
VA-ES-BJ, 1.111 µM	0.852
VA-ES-BJ, 3.333 µM	0.637
VA-ES-BJ, 10 µM	0.659

CN1CCN(c2ccc(C(=O)Nc3n[nH]c4ccc(Cc5cc(F)cc(F)c5)cc34)c(NC3CCOCC3)c2)CC1 [Entrectinib]
Settings	relative viability
G401, 0.00017 µM	1.04
G401, 0.00051 µM	1.01
G401, 0.00152 µM	1.057
G401, 0.00457 µM	1.07
G401, 0.01372 µM	1.03
G401, 0.04115 µM	1.01
G401, 0.1235 µM	1.011
G401, 0.3704 µM	0.979
G401, 1.111 µM	0.87
G401, 3.333 µM	0.651
G401, 10 µM	0.163
HT1080, 0.00017 µM	1.095
HT1080, 0.00051 µM	1.13
HT1080, 0.00152 µM	1.1
HT1080, 0.00457 µM	1.08
HT1080, 0.01372 µM	1.08
HT1080, 0.04115 µM	1.09
HT1080, 0.1235 µM	1.08
HT1080, 0.3704 µM	1.06
HT1080, 1.111 µM	1.06
HT1080, 3.333 µM	0.952
HT1080, 10 µM	0.349
KHOS-240S, 0.00017 µM	1.06
KHOS-240S, 0.00051 µM	1.061
KHOS-240S, 0.00152 µM	1.1
KHOS-240S, 0.00457 µM	1.08
KHOS-240S, 0.01372 µM	1.08
KHOS-240S, 0.04115 µM	1.07
KHOS-240S, 0.1235 µM	1.08
KHOS-240S, 0.3704 µM	1
KHOS-240S, 1.111 µM	0.939
KHOS-240S, 3.333 µM	0.617
KHOS-240S, 10 µM	0.0159
MES-SA, 0.00017 µM	0.942
MES-SA, 0.00051 µM	0.942
MES-SA, 0.00152 µM	0.931
MES-SA, 0.00457 µM	0.925
MES-SA, 0.01372 µM	0.899
MES-SA, 0.04115 µM	0.904
MES-SA, 0.1235 µM	0.892
MES-SA, 0.3704 µM	0.893
MES-SA, 1.111 µM	0.821
MES-SA, 3.333 µM	0.702
MES-SA, 10 µM	0.364
RD, 0.00017 µM	1.08
RD, 0.00051 µM	1.13
RD, 0.00152 µM	1.14
RD, 0.00457 µM	1.13
RD, 0.01372 µM	1.11
RD, 0.04115 µM	1.1
RD, 0.1235 µM	1.11
RD, 0.3704 µM	1.07
RD, 1.111 µM	0.934
RD, 3.333 µM	0.589
RD, 10 µM	0.0669
RD-ES, 0.00017 µM	0.991
RD-ES, 0.00051 µM	1.02
RD-ES, 0.00152 µM	0.986
RD-ES, 0.00457 µM	0.986
RD-ES, 0.01372 µM	0.992
RD-ES, 0.04115 µM	0.997
RD-ES, 0.1235 µM	0.99
RD-ES, 0.3704 µM	0.929
RD-ES, 1.111 µM	0.776
RD-ES, 3.333 µM	0.552
RD-ES, 10 µM	0.0781
SK-ES-1, 0.00017 µM	1.09
SK-ES-1, 0.00051 µM	1.04
SK-ES-1, 0.00152 µM	1.05
SK-ES-1, 0.00457 µM	1.06
SK-ES-1, 0.01372 µM	1.03
SK-ES-1, 0.04115 µM	1.1
SK-ES-1, 0.1235 µM	1.05
SK-ES-1, 0.3704 µM	0.959
SK-ES-1, 1.111 µM	0.844
SK-ES-1, 3.333 µM	0.465
SK-ES-1, 10 µM	0.105
SK-LMS-1, 0.00017 µM	1.13
SK-LMS-1, 0.00051 µM	1.1
SK-LMS-1, 0.00152 µM	1.12
SK-LMS-1, 0.00457 µM	1.13
SK-LMS-1, 0.01372 µM	1.1
SK-LMS-1, 0.04115 µM	1.07
SK-LMS-1, 0.1235 µM	1.07
SK-LMS-1, 0.3704 µM	1.072
SK-LMS-1, 1.111 µM	1.03
SK-LMS-1, 3.333 µM	0.856
SK-LMS-1, 10 µM	0.0143
SW982, 0.00017 µM	1.03
SW982, 0.00051 µM	1.05
SW982, 0.00152 µM	1.05
SW982, 0.00457 µM	1.07
SW982, 0.01372 µM	1.05
SW982, 0.04115 µM	1.06
SW982, 0.1235 µM	1.06
SW982, 0.3704 µM	0.991
SW982, 1.111 µM	0.865
SW982, 3.333 µM	0.548
SW982, 10 µM	0.0591
SW1353, 0.00017 µM	1.04
SW1353, 0.00051 µM	1.05
SW1353, 0.00152 µM	1.01
SW1353, 0.00457 µM	1.01
SW1353, 0.01372 µM	0.976
SW1353, 0.04115 µM	0.985
SW1353, 0.1235 µM	0.9886
SW1353, 0.3704 µM	0.9517
SW1353, 1.111 µM	0.953
SW1353, 3.333 µM	0.782
SW1353, 10 µM	0.0075
SYO-1, 0.00017 µM	1.03
SYO-1, 0.00051 µM	0.998
SYO-1, 0.00152 µM	1.02
SYO-1, 0.00457 µM	0.953
SYO-1, 0.01372 µM	0.979
SYO-1, 0.04115 µM	0.948
SYO-1, 0.1235 µM	0.925
SYO-1, 0.3704 µM	0.851
SYO-1, 1.111 µM	0.765
SYO-1, 3.333 µM	0.529
SYO-1, 10 µM	-0.0142
VA-ES-BJ, 0.00017 µM	1.09
VA-ES-BJ, 0.00051 µM	1.08
VA-ES-BJ, 0.00152 µM	1.06
VA-ES-BJ, 0.00457 µM	1.05
VA-ES-BJ, 0.01372 µM	1.06
VA-ES-BJ, 0.04115 µM	1.03
VA-ES-BJ, 0.1235 µM	1.022
VA-ES-BJ, 0.3704 µM	1.01
VA-ES-BJ, 1.111 µM	0.976
VA-ES-BJ, 3.333 µM	0.894
VA-ES-BJ, 10 µM	0.575
